The text below walks through data of ChEMBL document CHEMBL1201862, “PubChem BioAssay data set” (2004).

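Following 48 hours of exposure in 96-well plates, responses at five concentrations were used to interpolate endpoints linearly. Here, GI50 denotes the concentration required for 50% inhibition of growth.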 Active and inactive are the calls of the source. No stated cut-off is given here; in the data, active = GI50 up to about 1.1 µM and inactive = higher. Where only a bound is given, the exact number is not on record here.

Some test systems named below: HOP-92; HCT-116; K562; SW-620; SN12C; SK-OV-3; SK-MEL-5; IGROV-1; SNB-75; MDA-MB-435; NCI-H460; CAKI-1; M14; PC-3; HCT-15; RPMI-8226; U-251; KM12; SF-268; OVCAR-3.
What all share (assay): growth of human tumour cells (NCI), 48 h

Consider `C/C(=N\NC(=O)c1ccncc1)c1sc(-n2nc(-c3ccccc3)cc2-c2ccccc2)nc1C`, for which the GI50 with HOP-92 is > 31.6 µM (inactive); in the assay on HCT-116, > 31.6 µM (inactive); with K562, 59.6 µM (inactive); in the assay on SW-620, > 31.6 µM (inactive); in the assay with SN12C it was > 100 µM (inactive); with SK-OV-3, > 31.6 µM (inactive). For the same molecule, the GI50 was > 31.6 µM (inactive) in the assay with SK-MEL-5; > 33.7 µM (inactive) in the assay with IGROV-1; > 37.2 µM (inactive) in the assay with SNB-75; > 31.6 µM (inactive) with MDA-MB-435; > 31.6 µM (inactive) in the assay with NCI-H460; 98.4 µM (inactive) in the assay with CAKI-1. Also, the GI50 in the assay on M14 was > 31.6 µM (inactive); in the assay on PC-3, > 31.6 µM (inactive); in the assay on HCT-15 it was above 31.6 µM; with RPMI-8226, 20.7 µM (inactive); with U-251, > 31.6 µM (inactive); in the assay on KM12, 99.5 µM (inactive). Moreover, the GI50 with SF-268 was > 100 µM (inactive); in the assay on OVCAR-3 it was 25.1 µM (inactive).

In the case of `CCOC(=O)/C=C(\C(=O)OCC)n1ccc(=O)n(Cc2cnnn2CCCCOC(C)=O)c1=O`, the GI50 is 2.57 µM (inactive) with HOP-92; 6.21 µM (inactive) with HCT-116; 2.37 µM (inactive) with K562; 2.05 µM (inactive) in the assay with SW-620; 10.4 µM (inactive) with SN12C; 34 µM (inactive) with SK-OV-3. Also, the GI50 with SK-MEL-5 is 13.5 µM (inactive); with IGROV-1 it was 14 µM (inactive); in the assay with SNB-75, 14 µM (inactive); with MDA-MB-435 it was 6.85 µM (inactive); with NCI-H460, 8.53 µM (inactive); in the assay on CAKI-1, 2.38 µM (inactive). Moreover, the GI50 with M14 was 17.5 µM (inactive); with PC-3 it was 9.4 µM (inactive); with HCT-15 it was 3.73 µM; with RPMI-8226, 6.68 µM (inactive); with U-251 it was 27.3 µM (inactive); in the assay on KM12 it was 15.9 µM (inactive). Further, the GI50 is 15.6 µM (inactive) with SF-268 and 5.3 µM (inactive) in the assay on OVCAR-3.

With `COC(=O)c1cc2c3c(cc(N(C)C)c2[nH]1)N(C(=O)c1cc2cc(OC)c(OC)c(OC)c2[nH]1)CC3CCl` (stereo not drawn), the GI50 in the assay on HOP-92 was 0.0041 µM (active); with HCT-116 it was < 0.0025 µM (active); in the assay on K562 it was 0.00317 µM (active); with SW-620 it was < 0.0025 µM (active); with SN12C, 0.0114 µM (active); in the assay with SK-OV-3, 0.00738 µM (active). The GI50 was 0.00333 µM (active) with SK-MEL-5; < 0.0025 µM (active) with IGROV-1; 0.0042 µM (active) in the assay with SNB-75; 0.00298 µM (active) in the assay with MDA-MB-435; 0.00252 µM (active) with NCI-H460; < 0.0025 µM (active) in the assay on CAKI-1. In addition, the GI50 with M14 is 0.00294 µM (active); in the assay with PC-3, 0.00366 µM (active); in the assay on HCT-15, 0.00468 µM; in the assay with RPMI-8226, 0.00432 µM (active); with U-251, < 0.0025 µM (active); in the assay with KM12, 0.00267 µM (active). The GI50 is 0.00374 µM (active) in the assay with SF-268 and 0.00396 µM (active) with OVCAR-3.

`CCCCNC(=O)OCCN=C1c2ccccc2C(Br)C(Br)c2ccccc21` (stereo not drawn): the GI50 in the assay on HOP-92 was 4.46 µM (inactive); in the assay with HCT-116, 23.3 µM (inactive); with K562, 29.9 µM (inactive); with SW-620, 40.2 µM (inactive); with SN12C it was 32.9 µM (inactive); in the assay with SK-OV-3, 32.1 µM (inactive). Moreover, the GI50 with SK-MEL-5 is 18.7 µM (inactive); with IGROV-1, 49.8 µM (inactive); in the assay with SNB-75, 30.5 µM (inactive); with MDA-MB-435, 21 µM (inactive); with NCI-H460, 54.6 µM (inactive); in the assay with CAKI-1, 25.6 µM (inactive). Besides, the GI50 in the assay on M14 is 19.4 µM (inactive); with PC-3, 36.9 µM (inactive); with HCT-15 it was 16 µM; in the assay on RPMI-8226, 22.5 µM (inactive); in the assay on U-251, 23.2 µM (inactive); in the assay on KM12, 45.6 µM (inactive). Besides, the figures for the GI50 with SF-268 and with OVCAR-3 were 32.3 µM (inactive) and 19.9 µM (inactive), respectively.

`O=C(Nc1ccn(C2CC(O)C(COC(c3ccccc3)(c3ccccc3)c3ccccc3)O2)c(=O)n1)c1ccccc1` (stereo not drawn): the GI50 with HOP-92 is 1.57 µM (inactive); in the assay on HCT-116, 2 µM (inactive); with K562, 2.92 µM (inactive); in the assay with SW-620 it was 2.58 µM (inactive); in the assay with SN12C, 1.89 µM (inactive); in the assay with SK-OV-3 it was 11.5 µM (inactive). The GI50 in the assay with SK-MEL-5 is 2.33 µM (inactive); in the assay on IGROV-1, 2.9 µM (inactive); in the assay with SNB-75, 4.66 µM (inactive); with MDA-MB-435, 2.56 µM (inactive); in the assay with NCI-H460, 2.03 µM (inactive); with CAKI-1 it was 6.32 µM (inactive). The GI50 was 2.3 µM (inactive) in the assay on M14; 2.43 µM (inactive) with PC-3; 2.59 µM in the assay with HCT-15; 2.53 µM (inactive) in the assay with RPMI-8226; 3.5 µM (inactive) in the assay on U-251; 4.35 µM (inactive) with KM12. The GI50 is 5.06 µM (inactive) in the assay on SF-268 and 2.03 µM (inactive) in the assay on OVCAR-3.

`CCCCCCCCCCCCOCCOCCOCCOCCOCCOCC(=O)NC(Cc1ccccc1)C(=O)Oc1ccc([N+](=O)[O-])cc1` (stereo not drawn): the GI50 with HOP-92 was 26.7 µM (inactive); in the assay on HCT-116, 31.6 µM (inactive); in the assay with K562, 41.7 µM (inactive); with SW-620 it was 36.2 µM (inactive); in the assay on SK-OV-3 it was 64.9 µM (inactive); in the assay on SK-MEL-5, 31.8 µM (inactive). Besides, the GI50 with IGROV-1 was 44.3 µM (inactive); in the assay on SNB-75 it was 27 µM (inactive); in the assay with MDA-MB-435, 30.6 µM (inactive); with NCI-H460 it was 30.5 µM (inactive); in the assay on CAKI-1 it was > 100 µM (inactive); with M14, 31.5 µM (inactive). Besides, the GI50 in the assay with PC-3 was 31 µM (inactive); in the assay with HCT-15, 37 µM; with RPMI-8226, 23.2 µM (inactive); in the assay with U-251, 34.2 µM (inactive); in the assay with KM12 it was 40.1 µM (inactive); in the assay with SF-268, 50.9 µM (inactive). For the same molecule, the GI50 in the assay on OVCAR-3 is 22.9 µM (inactive).

For `C=C1CC[C@](C)(O)[C@@]2(C)CC[C@H]3C(=C(C)C)C(=O)C[C@]3(C)C[C@H]12`, the GI50 in the assay with HOP-92 was > 50 µM (inactive); in the assay with HCT-116, 14.8 µM (inactive); in the assay on K562, 8.73 µM (inactive); with SW-620, 21.6 µM (inactive); in the assay with SN12C it was > 50 µM (inactive); in the assay with SK-OV-3, > 50 µM (inactive). Besides, the GI50 in the assay on SK-MEL-5 is 22.1 µM (inactive); with IGROV-1, 14.7 µM (inactive); in the assay with SNB-75, 29 µM (inactive); with MDA-MB-435, 17.5 µM (inactive); in the assay on CAKI-1, 22.4 µM (inactive); in the assay on M14 it was 37.5 µM (inactive). Also, the GI50 is 21.1 µM (inactive) with PC-3; 14.9 µM in the assay on HCT-15; 17.9 µM (inactive) with RPMI-8226; > 50 µM (inactive) with U-251; 21 µM (inactive) with KM12; > 50 µM (inactive) in the assay with SF-268. In addition, the GI50 with OVCAR-3 was 29.9 µM (inactive).
